Experimental data reported in patent US20220340633A1 (Adepthera LLC, priority 2016, published 2022).
“Also recorded” adds a separate entry of the source. Non-standard residues stand in square brackets, D forms with d. Residues, ends and D or L forms follow the SMILES beside them. *: point of attachment. Palmitoyl = CCCCCCCCCCCCCCCC(=O)*; AEEA = NCCOCCOCC(=O)O

Tests used:
[1] = system: primary human lymphatic endothelia cells (HLEC); experiment: HLEC survival in medium with 0.1% FBS, MTS assay; settings: 30, 100, and 300 nM, 72 hrs
Description: The cells were cultured for 72 hrs, and cell viability was assayed with the MTS assay (Promega).

[2] = molecular target: CLR/RAMP1 receptor (Homo sapiens, UniProt O60894+Q16602); settings: for receptor specificity of antagonist: CLR/RAMP1 versus CLR/RAMP2
Description: (§1) Using a receptor activation assay, the dose-dependent stimulatory response of peptide agonists of the present invention on a CLR/RAMP1 receptor, a CLR/RAMP2, or a CLR/RAMP3 receptor complex was determined. A cell line carrying the recombinant CLR/RAMP1, CLR/RAMP2, or a CLR/RAMP3 receptor was employed in the assay. Peptide agonist activities were tested, in duplicate, at 10 different concentrations, starting with 1.0 μM and serially diluted 3-fold, in DMSO. […] The CLR/RAMP1 cAMP, CLR/RAMP2 arrestin assays, and CLR/RAMP3 cAMP (DiscoveRx, Fremont, Calif.) were used.
(§2) For the analysis of antagonistic activity, the synthetic analogs were pre-incubated with the cells before adding the reference ligand at its EC80.

[3] = molecular target: CLR/RAMP3 receptor (Homo sapiens, UniProt O60896+Q16602); experiment: cell-based
CLR/RAMP3 receptor, sequence (Q16602 23-461): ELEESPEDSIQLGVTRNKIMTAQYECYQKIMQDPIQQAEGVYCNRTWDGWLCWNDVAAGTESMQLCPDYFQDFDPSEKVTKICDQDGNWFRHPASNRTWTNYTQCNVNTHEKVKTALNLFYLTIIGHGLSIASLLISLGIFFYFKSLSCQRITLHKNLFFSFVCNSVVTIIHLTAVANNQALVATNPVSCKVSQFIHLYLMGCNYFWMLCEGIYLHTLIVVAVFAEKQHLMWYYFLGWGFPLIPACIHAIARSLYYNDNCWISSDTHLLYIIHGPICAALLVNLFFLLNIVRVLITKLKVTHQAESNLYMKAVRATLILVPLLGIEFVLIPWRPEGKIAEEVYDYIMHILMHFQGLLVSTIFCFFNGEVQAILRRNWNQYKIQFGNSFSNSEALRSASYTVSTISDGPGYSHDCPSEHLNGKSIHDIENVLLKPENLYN
CLR/RAMP3 receptor, sequence (O60896 24-148): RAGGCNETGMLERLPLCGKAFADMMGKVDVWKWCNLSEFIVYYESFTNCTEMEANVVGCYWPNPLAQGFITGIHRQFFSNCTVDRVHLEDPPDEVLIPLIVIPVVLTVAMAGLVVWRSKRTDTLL
Description: as §1, §2

CLR/RAMP1 receptor, sequence (Q16602 23-461): as the sequence (Q16602 23-461) above
CLR/RAMP1 receptor, sequence (O60894 27-148): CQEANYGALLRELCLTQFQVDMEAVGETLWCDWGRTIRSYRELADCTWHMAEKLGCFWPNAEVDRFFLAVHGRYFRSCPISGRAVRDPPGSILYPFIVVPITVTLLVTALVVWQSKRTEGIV

Structure (SMILES) | HLEC survival (in words) [1] | IC50 [3] [nM] | also measured
CCCCCCCCCCCCCCCC(=O)N[C@@H](CCCCN)C(=O)N[C@H](C(=O)N[C@@H](CCCCN)C(=O)N[C@@H](CCCCN)C(=O)N[C@H](C(=O)N[C@@H](CC(C)C)C(=O)N[C@@H](CCCNC(=N)N)C(=O)N[C@H](C(=O)NCC(=O)N[C@H]1CSSC[C@@H](C(=O)N[C@H](C(=O)N[C@H](C(=O)N[C@@H](CCC(N)=O)C(=O)N[C@@H](CCCCN)C(=O)N[C@@H](CC(C)C)C(=O)N[C@@H](C)C(=O)N[C@@H](Cc2c[nH]cn2)C(=O)N[C@@H](CCC(N)=O)C(=O)N[C@H](C(=O)N[C@@H](Cc2ccc(O)cc2)C(=O)N[C@@H](CCC(N)=O)C(=O)N[C@@H](Cc2ccccc2)C(=O)N[C@H](C(=O)N[C@@H](CC(=O)O)C(=O)N[C@@H](CCCCN)C(=O)N[C@@H](CC(=O)O)C(=O)N[C@@H](CCCCN)C(=O)N[C@@H](CC(=O)O)C(=O)N[C@@H](CC(N)=O)C(=O)N[C@H](C(=O)N[C@@H](C)C(=O)N2CCC[C@H]2C(=O)N[C@H](C(=O)N[C@@H](CC(=O)O)C(=O)N2CCC[C@H]2C(=O)N[C@@H](CO)C(=O)N[C@@H](CO)C(=O)N2CCC[C@H]2C(=O)N[C@@H](Cc2c[nH]cn2)C(=O)N[C@@H](CO)C(=O)N[C@@H](Cc2ccc(O)cc2)C(N)=O)C(C)C)C(C)C)[C@@H](C)O)[C@@H](C)CC)C(C)C)[C@@H](C)O)NC(=O)[C@H]([C@@H](C)O)NC(=O)CNC(=O)[C@H](Cc2ccccc2)NC(=O)[C@H](CCCNC(=N)N)NC1=O)[C@@H](C)O)[C@@H](C)O)[C@@H](C)O [SEQ ID NO: 40] | dose-dependently stimulated; also recorded: significantly promote | – | –
CSCC[C@H](NC(=O)[C@H](CC(C)C)NC(=O)[C@H](CCC(N)=O)NC(=O)[C@H](Cc1c[nH]c2ccccc12)NC(=O)[C@H](CC(C)C)NC(=O)[C@H](CCCNC(=N)N)NC(=O)[C@H](Cc1c[nH]cn1)NC(=O)[C@H](CO)NC(=O)[C@H](CC(C)C)NC(=O)[C@H](CC(N)=O)NC(=O)[C@H](CCC(N)=O)NC(=O)[C@@H](NC(=O)[C@H](CCC(N)=O)NC(=O)[C@@H]1CSSC[C@H](NC(=O)CNC(=O)[C@@H](NC(C)=O)C(C)C)C(=O)N[C@@H](C(C)C)C(=O)N[C@@H](CC(C)C)C(=O)NCC(=O)N[C@@H]([C@@H](C)O)C(=O)N1)C(C)C)C(=O)NCC(=O)N1CCC[C@H]1C(=O)N[C@@H](C)C(=O)NCC(=O)N[C@@H](CCCNC(=N)N)C(=O)N[C@@H](CCC(N)=O)C(=O)N[C@@H](CC(=O)O)C(=O)N[C@@H](CO)C(=O)N[C@@H](C)C(=O)N1CCC[C@H]1C(=O)N[C@H](C(=O)N[C@@H](CC(=O)O)C(=O)N1CCC[C@H]1C(=O)N[C@@H](CO)C(=O)N[C@@H](CO)C(=O)N1CCC[C@H]1C(=O)N[C@@H](Cc1c[nH]cn1)C(=O)N[C@@H](CO)C(=O)N[C@@H](Cc1ccc(O)cc1)C(N)=O)C(C)C [SEQ ID NO: 52, reference compound] | minimal effects; also recorded: negligible effects | – | –
CC[C@H](C)[C@H](NC(=O)[C@H](CCC(N)=O)NC(=O)[C@H](Cc1c[nH]cn1)NC(=O)[C@H](C)NC(=O)[C@H](CC(C)C)NC(=O)[C@H](CCCCN)NC(=O)[C@H](CCC(N)=O)NC(=O)[C@@H](NC(=O)[C@@H](NC(=O)[C@@H]1CSSC[C@H](NC(=O)CNC(=O)[C@H](CCCCN)NC(C)=O)C(=O)N[C@@H](CCCNC(=N)N)C(=O)N[C@@H](Cc2ccccc2)C(=O)NCC(=O)N[C@@H]([C@@H](C)O)C(=O)N1)[C@@H](C)O)C(C)C)C(=O)N[C@@H](Cc1ccc(O)cc1)C(=O)N[C@@H](CCC(N)=O)C(=O)N[C@@H](Cc1ccccc1)C(=O)N[C@H](C(=O)N[C@@H](CC(=O)O)C(=O)N[C@@H](CCCCN)C(=O)N[C@@H](CC(=O)O)C(=O)N[C@@H](CCCCN)C(=O)N[C@@H](CC(=O)O)C(=O)N[C@@H](CC(N)=O)C(=O)N[C@@H](CO)C(=O)N[C@@H](C)C(=O)N1CCC[C@H]1C(=O)N[C@H](C(=O)N[C@@H](CC(=O)O)C(=O)N1CCC[C@H]1C(=O)N[C@@H](CO)C(=O)N[C@@H](CO)C(=O)N1CCC[C@H]1C(=O)N[C@@H](Cc1c[nH]cn1)C(=O)N[C@@H](CO)C(=O)N[C@@H](Cc1ccc(O)cc1)C(N)=O)C(C)C)[C@@H](C)O [SEQ ID NO: 59] | minimal effects; also recorded: negligible effects | – | –
CC[C@H](C)[C@H](NC(=O)[C@H](CCC(N)=O)NC(=O)[C@H](Cc1c[nH]cn1)NC(=O)[C@H](C)NC(=O)[C@H](CC(C)C)NC(=O)[C@H](CCCCN)NC(=O)[C@H](CCC(N)=O)NC(=O)[C@@H](NC(=O)[C@@H](NC(C)=O)[C@@H](C)O)C(C)C)C(=O)N[C@@H](Cc1ccc(O)cc1)C(=O)N[C@@H](CCC(N)=O)C(=O)N[C@@H](Cc1ccccc1)C(=O)N[C@H](C(=O)N[C@@H](CC(=O)O)C(=O)N[C@@H](CCCCN)C(=O)N[C@@H](CC(=O)O)C(=O)N[C@@H](CCCCN)C(=O)N[C@@H](CC(=O)O)C(=O)N[C@@H](CC(N)=O)C(=O)N[C@@H](CO)C(=O)N[C@@H](C)C(=O)N1CCC[C@H]1C(=O)N[C@H](C(=O)N[C@@H](CC(=O)O)C(=O)N1CCC[C@H]1C(=O)N[C@@H](CO)C(=O)N[C@@H](CO)C(=O)N1CCC[C@H]1C(=O)N[C@@H](Cc1c[nH]cn1)C(=O)N[C@@H](CO)C(=O)N[C@@H](Cc1ccc(O)cc1)C(N)=O)C(C)C)[C@@H](C)O [SEQ ID NO: 76] | – | – | antagonistic activity toward CLR/RAMP1 and/or CLR/RAMP2 receptor signaling (in words) ([2]; statement covers CGRP-stimulated CLR/RAMP1 and ADM-stimulated CLR/RAMP2): mildly improved antagonistic activity
CCCCCCCCCCCCCCCC(=O)NCCCC[C@H](NC(=O)COCCOCCN)C(=O)N[C@H](C(=O)N[C@@H](CCC(N)=O)C(=O)N[C@@H](CCCCN)C(=O)N[C@@H](CC(C)C)C(=O)N[C@@H](C)C(=O)N[C@@H](Cc1c[nH]cn1)C(=O)N[C@@H](CCC(N)=O)C(=O)N[C@H](C(=O)N[C@@H](Cc1ccc(O)cc1)C(=O)N[C@@H](CCC(N)=O)C(=O)N[C@@H](Cc1ccccc1)C(=O)N[C@H](C(=O)N[C@@H](CC(=O)O)C(=O)N[C@@H](CCCCN)C(=O)N[C@@H](CC(=O)O)C(=O)N[C@@H](CCCCN)C(=O)N[C@@H](CC(=O)O)C(=O)N[C@@H](CC(N)=O)C(=O)N[C@@H](CO)C(=O)N[C@@H](C)C(=O)N1CCC[C@H]1C(=O)N[C@H](C(=O)N[C@@H](CC(=O)O)C(=O)N1CCC[C@H]1C(=O)N[C@@H](CO)C(=O)N[C@@H](CO)C(=O)N1CCC[C@H]1C(=O)N[C@@H](Cc1c[nH]cn1)C(=O)N[C@@H](CO)C(=O)N[C@@H](Cc1ccc(O)cc1)C(N)=O)C(C)C)[C@@H](C)O)[C@@H](C)CC)C(C)C [SEQ ID NO: 78] (H-[AEEA]K(Palmitoyl)VQKLAHQIYQFTDKDKDNSAPVDPSSPHSY-NH2) | – | 0.8 to 9.2 | –
CCCCCCCCCCCCCCCC(=O)NCCCC[C@H](NC(=O)COCCOCCN)C(=O)N[C@H](C(=O)N[C@@H](CCC(N)=O)C(=O)N[C@@H](CCCCN)C(=O)N[C@@H](CC(C)C)C(=O)N[C@@H](C)C(=O)N[C@@H](Cc1c[nH]cn1)C(=O)N[C@@H](CCC(N)=O)C(=O)N[C@H](C(=O)N[C@@H](Cc1ccc(O)cc1)C(=O)N[C@@H](CCC(N)=O)C(=O)N[C@@H](Cc1ccccc1)C(=O)N[C@H](C(=O)N[C@@H](CC(=O)O)C(=O)N[C@@H](CCCCN)C(=O)N[C@@H](CC(=O)O)C(=O)N[C@@H](CO)C(=O)N[C@@H](C)C(=O)N1CCC[C@H]1C(=O)N[C@H](C(=O)N[C@@H](CC(=O)O)C(=O)N1CCC[C@H]1C(=O)N[C@@H](CO)C(=O)N[C@@H](CO)C(=O)N1CCC[C@H]1C(=O)N[C@@H](Cc1c[nH]cn1)C(=O)N[C@@H](CO)C(=O)N[C@@H](Cc1ccc(O)cc1)C(N)=O)C(C)C)[C@@H](C)O)[C@@H](C)CC)C(C)C [SEQ ID NO: 112] (H-[AEEA]K(Palmitoyl)VQKLAHQIYQFTDKDSAPVDPSSPHSY-NH2) | – | 0.8 to 9.2 | –
CCCCCCCCCCCCCCCC(=O)N[C@@H](CCCCN)C(=O)N[C@H](C(=O)N[C@@H](CCC(N)=O)C(=O)N[C@@H](CC(N)=O)C(=O)N[C@@H](CC(C)C)C(=O)N[C@@H](CO)C(=O)N[C@@H](Cc1c[nH]cn1)C(=O)N[C@@H](CCCNC(=N)N)C(=O)N[C@@H](CC(C)C)C(=O)N[C@@H](Cc1c[nH]c2ccccc12)C(=O)N[C@@H](CCC(N)=O)C(=O)N[C@@H](CC(C)C)C(=O)N[C@@H](CCSC)C(=O)NCC(=O)N1CCC[C@H]1C(=O)N[C@@H](C)C(=O)NCC(=O)N[C@@H](CO)C(=O)N[C@@H](C)C(=O)N1CCC[C@H]1C(=O)N[C@H](C(=O)N[C@@H](CC(=O)O)C(=O)N1CCC[C@H]1C(=O)N[C@@H](CO)C(=O)N[C@@H](CO)C(=O)N1CCC[C@H]1C(=O)N[C@@H](Cc1c[nH]cn1)C(=O)N[C@@H](CO)C(=O)N[C@@H](Cc1ccc(O)cc1)C(N)=O)C(C)C)C(C)C [SEQ ID NO: 120] | – | – | receptor specificity of antagonist [2]: CLR/RAMP1-specific
CCCCCCCCCCCCCCCC(=O)N[C@@H](CCCCN)C(=O)N[C@H](C(=O)N[C@@H](CCC(N)=O)C(=O)N[C@@H](CCCCN)C(=O)N[C@@H](CC(C)C)C(=O)N[C@@H](C)C(=O)N[C@@H](Cc1c[nH]cn1)C(=O)N[C@@H](CCC(N)=O)C(=O)N[C@H](C(=O)N[C@@H](CO)C(=O)N[C@@H](C)C(=O)N1CCC[C@H]1C(=O)N[C@H](C(=O)N[C@@H](CC(=O)O)C(=O)N1CCC[C@H]1C(=O)N[C@@H](CO)C(=O)N[C@@H](CO)C(=O)N1CCC[C@H]1C(=O)N[C@@H](Cc1c[nH]cn1)C(=O)N[C@@H](CO)C(=O)N[C@@H](Cc1ccc(O)cc1)C(N)=O)C(C)C)[C@@H](C)CC)C(C)C [SEQ ID NO: 123] | – | 0.8 to 9.2 | –
CCCCCCCCCCCCCCCC(=O)N[C@@H](CCCCN)C(=O)N[C@H](C(=O)N[C@@H](CCC(N)=O)C(=O)N[C@@H](CCCCN)C(=O)N[C@@H](CC(C)C)C(=O)N[C@@H](C)C(=O)N[C@@H](Cc1c[nH]cn1)C(=O)N[C@@H](CCC(N)=O)C(=O)N[C@H](C(=O)N[C@@H](Cc1ccc(O)cc1)C(=O)N[C@@H](CCC(N)=O)C(=O)N[C@@H](Cc1ccccc1)C(=O)N[C@H](C(=O)N[C@@H](CC(=O)O)C(=O)N[C@@H](CCCCN)C(=O)N[C@@H](CO)C(=O)N[C@@H](C)C(=O)N1CCC[C@H]1C(=O)N[C@H](C(=O)N[C@@H](CC(=O)O)C(=O)N1CCC[C@H]1C(=O)N[C@@H](CO)C(=O)N[C@@H](CO)C(=O)N1CCC[C@H]1C(=O)N[C@@H](Cc1c[nH]cn1)C(=O)N[C@@H](CO)C(=O)N[C@@H](Cc1ccc(O)cc1)C(N)=O)C(C)C)[C@@H](C)O)[C@@H](C)CC)C(C)C [SEQ ID NO: 125] | – | – | receptor specificity of antagonist [2]: pan-specific
